Patent US20070048231A1, “Pheromone compositions and methods” (priority 2005, published 2007)

Key:
[1] = tested on: exercise strength and stamina; test: Inhalation exposure of the inventor to androstenone released from a polyethylene bag: exercise strength and stamina; format: in vivo; details: human (inventor), after about five to seven days of exposure
Text: (§1) For example, increased strength was evidenced by an at least 5-10%, and more typically 10-20% increase of weight that was lifted as compared to the same exercise before exposure to the pheromone.
With respect to the effects afforded by contemplated compositions and devices, it is generally contemplated that the steroid pheromones will exert both a desirable behavioral effect as well as a desirable non-behavioral effect. […] The term “exercise strength” as used herein refers to an ability to lift a particular weight in a given exercise routine (e.g., lifting of 100 pounds on a bench press). Thus, where exercise strength is increased, heavier weights can be lifted. Most typically the increase in exercise strength is between 5 and 40%, and more typically between 10 and 25%. […] The term “exercise stamina” as used herein refers to an ability to lift a particular weight in a given exercise routine for a maximum of repeats Rmax (e.g., lifting of 100 pounds on a bench press ten times). Thus, where exercise stamina is increased, the weight can be lifted more that Rmax times. Most typically the increase in exercise strength is between 5 and 30%, and more typically between 10 and 20%.

sinusitis = test: Inhalation exposure of the inventor to androstenone released from a polyethylene bag: sinusitis signs and symptoms; format: in vivo; details: human (inventor); about 500 mg in polyethylene bag; about five to seven days of exposure, two to eight hours per day
Text: as §1
Therefore, it is also contemplated that the compositions and methods presented herein may present a convenient matter to treat and/or alleviate signs and symptoms of airway inflammation. Most preferably, such inflammation may be sinusitis, asthma, and allergic airway inflammation. In yet other contemplated aspects, additional behavioral effects may be advantageously conferred by use of contemplated compositions and methods, especially including feeling of increased energy, sexual desire, and self-confidence.

## C[C@]12CCC(=O)C[C@@H]1CC[C@@H]1[C@@H]2CC[C@]2(C)C=CC[C@@H]12 [androstenone, 5α-androst-16-en-3-one]
[1]; 'at least'
  increase of weight that was lifted as compared to the same exercise before exposure (exercise strength): 5-10%
[1]; 'more typically'
  increase of weight that was lifted as compared to the same exercise before exposure (exercise strength): 10-20%
[1]; 'most typically'
  increase in number of repeats per exercise (exercise stamina): 5-20%
sinusitis
  signs and symptoms of a previously diagnosed sinusitis: all signs and symptoms of a previously diagnosed sinusitis had disappeared
